Values after ≈ are worked out from the molar mass of the structure shown. Read-outs that look alike come from different tables or passages of the source.
Columns and labels:
P. gingivalis NCTC 11834 [1] = test: Minimum bactericidal concentration (MBC) assay; format: cell-based, Porphyromonas gingivalis
Protocol: P. gingivalis strains were cultured and maintained on Wilkins-Chalgren Anaerobe Medium (agar and broth) at pH 7.0; all cultures were incubated anaerobically at 37° C. for 5-7 days.
(§1) This assay, normally carried out after an MIC assay, determines the minimum concentration of a compound that is lethal to the micro-organism being tested.
(§2) These samples were then individually sub-cultured on antibiotic-free agar medium, under the incubation conditions described above. Following incubation they were examined visually for microbial growth.
(§3) The ratio of MIC to MBC should ideally be as close to 1 as possible.

S. mutans ATCC 25175 [2] = test: Minimum inhibitory concentration (MIC) assay; format: cell-based, Streptococcus mutans
Protocol: (§4) S. mutans was cultured and maintained on Wilkins-Chalgren Anaerobe Medium (agar and broth) at pH 7.0 supplemented with 1 g/L glucose; all cultures were incubated at 37° C. for 48 hours in an atmosphere containing 5% CO2. For the formation of biofilms in biofilm disruption assays, however, S. mutans was grown in brain-heart infusion broth supplemented with 5% sucrose. This is a standard international method for quantitatively assessing the antimicrobial activity of a compound in a liquid medium. The method used a sterile 96-well microtitre plate, capable of holding about 200 μl of liquid per well. […] The culture medium was as described above. The wells were inoculated with a liquid suspension of freshly grown micro-organism and incubated under the conditions described above. After incubation, the microtitre plate was examined visually (with the aid of a light box) for cloudiness in each well, which would indicate microbial growth. The MIC value was recorded as the lowest concentration of test compound required to inhibit microbial growth, ie the lowest concentration for which the liquid in the well remained clear. The assays were conducted in duplicate (minimum) and included both negative (culture medium with no micro-organisms) and positive (culture medium plus diluting solvent plus micro-organism) controls.

S. mutans ATCC 25175 [3] = test: Minimum bactericidal concentration (MBC) assay; format: cell-based, Streptococcus mutans
Protocol: S. mutans was cultured and maintained on Wilkins-Chalgren Anaerobe Medium (agar and broth) at pH 7.0 supplemented with 1 g/L glucose; all cultures were incubated at 37° C. for 48 hours in an atmosphere containing 5% CO2. For the formation of biofilms in biofilm disruption assays, however, S. mutans was grown in brain-heart infusion broth supplemented with 5% sucrose.
as §1, §2, §3

P. gingivalis NCTC 11834 [4] = test: Minimum inhibitory concentration (MIC) assay; format: cell-based, Porphyromonas gingivalis
Protocol: as §4, with “P. gingivalis strains were cultured and” for “S. mutans was cultured and”, “at pH 7.0; all cultures” for “at pH 7.0 supplemented with 1 g/L glucose; all cultures”, “were incubated anaerobically at 37°” for “were incubated at 37°”, “C. for 5-7 days. This is” for “C. for 48 hours in an atmosphere containing 5% CO2. For the formation of biofilms in biofilm disruption assays, however, S. mutans was grown in brain-heart infusion broth supplemented with 5% sucrose. This is”

[5] = test system: P. gingivalis 381 biofilm; test: Biofilm disruption assay on hydroxyapatite discs; format: cell-based, Porphyromonas gingivalis; conditions: 0.2% (w/v)
Protocol: (§5) This assay was designed to determine quantitatively the relative potency of a test compound to disrupt (effectively kill) biofilms formed by a test organism on hydroxyapatite (HA) discs. Biofilms were formed on sterile dense ceramic HA discs 7 mm diameter×1.8 mm thick (Clarkson Chromatography) by placing the discs in the appropriate liquid media (as described above) inoculated with the test organism (0.5×10^8 cfu/ml). The HA discs were then incubated at 37° C. for ˜48 hours in a 5% CO2 atmosphere (for S. mutans ATCC 25175) or ˜96 hours under anaerobic conditions (for P. gingivalis 381). Following the incubation period the supernatant was removed from the wells containing the HA discs and the discs were washed x3 with fresh media to ensure all planktonic cells were removed. The HA discs were then transferred to sterile bijoux bottles containing 1 ml of phosphate buffered saline (PBS) plus test compound(s) at the required concentration. After a set time period (usually 2 and/or 5 min), the HA disc was transferred to another sterile bijoux containing 1 ml of fresh growth media. Adherent cells were then harvested by vigorous vortexing for 2 minutes. A sample was then taken, serially diluted 10-fold in fresh growth media and inoculated onto agar plates in triplicate. Untreated HA discs, and HA discs added to PBS containing only the solvents used to dissolve the test compound(s), acted as controls. The plates were then incubated as described above and subsequently examined visually for growth. Colonies were counted at an appropriate serial dilution (5-50 individual colonies visible) with the aid of a colony counter. These measurements were then converted to numbers of colony forming units (cfu), using the formula: cfu/ml=number of colonies×serial dilution factor×100 (as only a 10 μl sample was taken). These cfu values were then converted into log10 values and plotted graphically against time of sample removal. At each time point, samples were assessed in triplicate; the final cfu/ml value was an average (mean) of the three readings. Biofilm disruption assays, as described above, were carried out using TBHQ as the test compound and chlorhexidine as a positive control. The negative control was 5% ethanol. For these experiments, the TBHQ and chlorhexidine were tested at concentrations of 0.2% w/v. The TBHQ was dissolved in ethanol and the chlorhexidine in distilled water. All the experiments were conducted in triplicate.

P. gingivalis NCTC 11834 [6] = test: Short-contact kill assay (SCKA); format: cell-based, Porphyromonas gingivalis; conditions: 0.2% (w/v)
Protocol: (§6) This quantitative assay was designed to determine the relative potency of a test compound or combination of test compounds to kill a test micro-organism over a short-contact time period (up to 5 minutes).
(§7) Samples from a culture of micro-organisms (ca. 1×10^8 cfu/ml) prepared in phosphate buffered saline (PBS) containing the relevant test compound(s) were taken at timed intervals (between 0 and 5 minutes), 10-fold serially diluted in PBS and then inoculated onto agar plates in triplicate. A culture containing only the solvent(s) used to dissolve the test compound(s) acted as a control for the assay (maximum solvent load 2.5% v/v).
(§8) The plates were then incubated as described above and subsequently examined visually for growth. Colonies were counted at an appropriate serial dilution (5-50 individual colonies visible) with the aid of a colony counter. These measurements were then converted to numbers of colony forming units (cfu), using the formula: cfu/ml=number of colonies×serial dilution factor×100 (as only a […] was taken).
(§9) These cfu values were then converted into […] values and plotted graphically against time of sample removal.
(§10) At each time point, samples were assessed in triplicate; the final cfu/ml value was an average (mean) of the three readings.
(§11) SCKAs, as described above, were carried out using TBHQ as the test compound. Chlorhexidine was used as a positive control and 2.5% ethanol as a negative control.
(§12) For the SCKA experiments, the TBHQ and chlorhexidine were both tested at concentrations of 0.2% w/v. The TBHQ was dissolved in ethanol and the chlorhexidine in distilled water. All the experiments were conducted in triplicate.

[7] = test system: S. mutans ATCC 25175 biofilm; test: Biofilm disruption assay on hydroxyapatite discs; format: cell-based, Streptococcus mutans; conditions: 0.2% (w/v)
Protocol: as §5

S. mutans ATCC 25175 [8] = test: Short-contact kill assay (SCKA); format: cell-based, Streptococcus mutans; conditions: 0.2% (w/v)
Protocol: as §6, §7, §8, §9, §10, §11, §12

[9] = 1 min, 3.00 = limit of detection

Row | SMILES | MBC (P. gingivalis NCTC 11834 [1]; Table 7) [mg/L] | MIC/MBC ratio (P. gingivalis NCTC 11834 [1]; Table 7) | MIC (S. mutans ATCC 25175 [2]; Table 8) [mg/L] | MBC (S. mutans ATCC 25175 [3]; Table 8) [mg/L] | MIC/MBC ratio (S. mutans ATCC 25175 [3]; Table 8) | MIC (P. gingivalis NCTC 11834 [4]; Table 7) [mg/L] | other results
1 | Oc1ccc(O)c(F)c1F [2,3-difluoro-p-hydroquinone] | 7.8 (≈ 53.4 µM) | 0.5 | 125 (≈ 856 µM) | 250 (≈ 1710 µM) | 0.5 | 3.9 (≈ 26.7 µM) | 
2 | CC(C)(C)c1cc(O)c(C(C)(C)C)cc1O [2,5-di-t-butyl-p-hydroquinone] | 15.6 (≈ 70.2 µM) | 1 | 250 (≈ 1120 µM) | > 250 | <0.5 | 15.6 (≈ 70.2 µM) | 
3 | CCC(C)(C)c1cc(O)c(C(C)(C)CC)cc1O [2,5-di-t-pentyl-p-hydroquinone] | 3.9 (≈ 15.6 µM) | 1 | 125 (≈ 499 µM) | 250 (≈ 998 µM) | 0.5 | 3.9 (≈ 15.6 µM) | 
4 | CC1=CC(=O)C(Cl)=CC1=O [2-chloro-5-methyl-p-benzoquinone] | 1.95 (≈ 12.5 µM) | 0.5 | 62.5 (≈ 399 µM) | 125 (≈ 798 µM) | 0.5 | 0.98 (≈ 6.26 µM) | 
5 | CCc1cc(O)ccc1O [2-ethyl-p-hydroquinone] | 1.95 (≈ 14.1 µM) | 0.5 | 31.2 (≈ 226 µM) | 125 (≈ 905 µM) | 0.25 | 0.98 (≈ 7.09 µM) | 
6 | CC(C)(C)C1=CC(=O)C=CC1=O [2-t-butyl-p-benzoquinone] | < 0.49 |  | 31.2 (≈ 190 µM) | 62.5 (≈ 381 µM) | 0.5 | < 0.49 | 
7 | CCCCCCc1ccc(O)cc1O [4-hexyl resorcinol] | 7.8 (≈ 40.1 µM) | 0.5 | 31.2 (≈ 161 µM) | 125 (≈ 643 µM) | 0.25 | 3.9 (≈ 20.1 µM) | 
8 | [H]/N=C(\N/C(=N/[H])NCCCCCCNC(=N)NC(=N)Nc1ccc(Cl)cc1)Nc1ccc(Cl)cc1 [CHX, chlorhexidine, reference compound] |  |  |  |  |  |  | MBC (P. gingivalis NCTC 11834 [1]; Porphyromonas gingivalis, NCTC11834, Tables 1, 2, read-out: MBC): 0.98 mg/L (≈ 1.94 µM); MIC/MBC ratio (P. gingivalis NCTC 11834 [1]; Tables 1, 2): 1; Viable cell counts ([5]; 0 min): 7.74 Log10 cfu/ml; Viable cell counts ([5]; 2 min): 6.08 Log10 cfu/ml; Viable cell counts ([5]; 5 min, 2.00 = limit of detection): 6.29 Log10 cfu/ml; MIC (S. mutans ATCC 25175 [2]; Streptococcus mutans, ATCC25175, Tables 1, 2, read-out: MIC): 0.625 mg/L (≈ 1.24 µM); Viable cell counts (P. gingivalis NCTC 11834 [6]; 0 min): 9.29 Log10 cfu/ml; Viable cell counts (P. gingivalis NCTC 11834 [6]; 0.5 min): *3.00 Log10 cfu/ml; Viable cell counts (P. gingivalis NCTC 11834 [6]; [9]): *3.00 Log10 cfu/ml; Viable cell counts ([7]; 0 min): 6.36 Log10 cfu/ml; Viable cell counts ([7]; 2 min): 5.00 Log10 cfu/ml; Viable cell counts ([7]; 5 min): 5.21 Log10 cfu/ml; Viable cell counts (S. mutans ATCC 25175 [8]; 0 min): 8.05 Log10 cfu/ml; Viable cell counts (S. mutans ATCC 25175 [8]; 0.5 min, 3.00 = limit of detection): *3.00 Log10 cfu/ml; Viable cell counts (S. mutans ATCC 25175 [8]; [9]): *3.00 Log10 cfu/ml; MBC (S. mutans ATCC 25175 [3]; Streptococcus mutans, ATCC25175, Tables 1, 2, read-out: MBC): 1.25 mg/L (≈ 2.47 µM); MIC/MBC ratio (S. mutans ATCC 25175 [3]; Tables 1, 2): 0.5; MIC (P. gingivalis NCTC 11834 [4]; Porphyromonas gingivalis, NCTC11834, Tables 1, 2, read-out: MIC): 0.98 mg/L (≈ 1.94 µM)
9 | Cc1cc(O)c(C(C)C)cc1O [Thymohydroquinone, thymohydroquinone] | 0.98 (≈ 5.9 µM) | <0.5 | 1.95 (≈ 11.7 µM) | 250 (≈ 1500 µM) | 0.008 | < 0.49 | 
10 | CC1=CC(=O)C(C(C)C)=CC1=O [Thymoquinone, thymoquinone] | 0.98 (≈ 5.97 µM) | 0.5 | 3.9 (≈ 23.8 µM) | > 250 | <0.0156 | 0.49 (≈ 2.98 µM) | 
